Results from US10421765B2, “Tetrahydropyrido[4,3-d]pyrimidine inhibitors of ATR kinase” (Board of Regents, The University of Texas System, priority 2017, dated 2019).
Like-named read-outs stand apart in the source and are kept apart here.

Key:
ATR/ATRIP complex = ATR/ATRIP complex (Homo sapiens (Human), UniProt Q13535); test: ATR/ATRIP enzymatic assay (Caliper-based); type: biochemical; details: FAM-labeled RAD17 peptide, ATP
In short: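 FLAG-TEV-ATR/His6-ATRIP co-expressed in HEK293 and anti-FLAG purified. Compound preincubated 30 min at 28 °C with enzyme (2x solution 4 nM), then FAM-RAD17 peptide (2x solution 10 uM, 2 μM ATP) added for 6 h at 28 °C; HEPES pH 8, 10 mM MnCl2. Caliper conversion read-out, IC50 from four-parameter fit.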

[1] = test system: ATR-driven phosphorylation of Chk1 kinase at Serine 345 in HT-29 colorectal adenocarcinoma cells; test: pCHK1 cellular assay (CHK1 p-Ser345 AlphaScreen SureFire); type: cell-based; details: 4-nitroquinoline N-oxide 12 uM, read-out: Cell IC50 (pCHK1 IC50 values)
In short: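 HT-29 cells seeded overnight, treated with 1:3 serially diluted compound for 90 minutes at 37° C., then 12 uM (final) 4-nitroquinoline N-oxide for 120 minutes. Lysates read for Chk1 p-Ser345 by AlphaScreen SureFire; IC50 from four-parameter logistic fit, normalized to DMSO (max) and 5 uM ATR inhibitor (min).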

[2] = read-out: ATR/ATRIP Enzyme IC50
[3] = Homo sapiens, HT-29, HT-29 cells
[4] = estimated range, read-out: ATR/ATRIP Enzyme IC50 (estimated class)

ATR/ATRIP complex, sequence (Q13535 whole entry): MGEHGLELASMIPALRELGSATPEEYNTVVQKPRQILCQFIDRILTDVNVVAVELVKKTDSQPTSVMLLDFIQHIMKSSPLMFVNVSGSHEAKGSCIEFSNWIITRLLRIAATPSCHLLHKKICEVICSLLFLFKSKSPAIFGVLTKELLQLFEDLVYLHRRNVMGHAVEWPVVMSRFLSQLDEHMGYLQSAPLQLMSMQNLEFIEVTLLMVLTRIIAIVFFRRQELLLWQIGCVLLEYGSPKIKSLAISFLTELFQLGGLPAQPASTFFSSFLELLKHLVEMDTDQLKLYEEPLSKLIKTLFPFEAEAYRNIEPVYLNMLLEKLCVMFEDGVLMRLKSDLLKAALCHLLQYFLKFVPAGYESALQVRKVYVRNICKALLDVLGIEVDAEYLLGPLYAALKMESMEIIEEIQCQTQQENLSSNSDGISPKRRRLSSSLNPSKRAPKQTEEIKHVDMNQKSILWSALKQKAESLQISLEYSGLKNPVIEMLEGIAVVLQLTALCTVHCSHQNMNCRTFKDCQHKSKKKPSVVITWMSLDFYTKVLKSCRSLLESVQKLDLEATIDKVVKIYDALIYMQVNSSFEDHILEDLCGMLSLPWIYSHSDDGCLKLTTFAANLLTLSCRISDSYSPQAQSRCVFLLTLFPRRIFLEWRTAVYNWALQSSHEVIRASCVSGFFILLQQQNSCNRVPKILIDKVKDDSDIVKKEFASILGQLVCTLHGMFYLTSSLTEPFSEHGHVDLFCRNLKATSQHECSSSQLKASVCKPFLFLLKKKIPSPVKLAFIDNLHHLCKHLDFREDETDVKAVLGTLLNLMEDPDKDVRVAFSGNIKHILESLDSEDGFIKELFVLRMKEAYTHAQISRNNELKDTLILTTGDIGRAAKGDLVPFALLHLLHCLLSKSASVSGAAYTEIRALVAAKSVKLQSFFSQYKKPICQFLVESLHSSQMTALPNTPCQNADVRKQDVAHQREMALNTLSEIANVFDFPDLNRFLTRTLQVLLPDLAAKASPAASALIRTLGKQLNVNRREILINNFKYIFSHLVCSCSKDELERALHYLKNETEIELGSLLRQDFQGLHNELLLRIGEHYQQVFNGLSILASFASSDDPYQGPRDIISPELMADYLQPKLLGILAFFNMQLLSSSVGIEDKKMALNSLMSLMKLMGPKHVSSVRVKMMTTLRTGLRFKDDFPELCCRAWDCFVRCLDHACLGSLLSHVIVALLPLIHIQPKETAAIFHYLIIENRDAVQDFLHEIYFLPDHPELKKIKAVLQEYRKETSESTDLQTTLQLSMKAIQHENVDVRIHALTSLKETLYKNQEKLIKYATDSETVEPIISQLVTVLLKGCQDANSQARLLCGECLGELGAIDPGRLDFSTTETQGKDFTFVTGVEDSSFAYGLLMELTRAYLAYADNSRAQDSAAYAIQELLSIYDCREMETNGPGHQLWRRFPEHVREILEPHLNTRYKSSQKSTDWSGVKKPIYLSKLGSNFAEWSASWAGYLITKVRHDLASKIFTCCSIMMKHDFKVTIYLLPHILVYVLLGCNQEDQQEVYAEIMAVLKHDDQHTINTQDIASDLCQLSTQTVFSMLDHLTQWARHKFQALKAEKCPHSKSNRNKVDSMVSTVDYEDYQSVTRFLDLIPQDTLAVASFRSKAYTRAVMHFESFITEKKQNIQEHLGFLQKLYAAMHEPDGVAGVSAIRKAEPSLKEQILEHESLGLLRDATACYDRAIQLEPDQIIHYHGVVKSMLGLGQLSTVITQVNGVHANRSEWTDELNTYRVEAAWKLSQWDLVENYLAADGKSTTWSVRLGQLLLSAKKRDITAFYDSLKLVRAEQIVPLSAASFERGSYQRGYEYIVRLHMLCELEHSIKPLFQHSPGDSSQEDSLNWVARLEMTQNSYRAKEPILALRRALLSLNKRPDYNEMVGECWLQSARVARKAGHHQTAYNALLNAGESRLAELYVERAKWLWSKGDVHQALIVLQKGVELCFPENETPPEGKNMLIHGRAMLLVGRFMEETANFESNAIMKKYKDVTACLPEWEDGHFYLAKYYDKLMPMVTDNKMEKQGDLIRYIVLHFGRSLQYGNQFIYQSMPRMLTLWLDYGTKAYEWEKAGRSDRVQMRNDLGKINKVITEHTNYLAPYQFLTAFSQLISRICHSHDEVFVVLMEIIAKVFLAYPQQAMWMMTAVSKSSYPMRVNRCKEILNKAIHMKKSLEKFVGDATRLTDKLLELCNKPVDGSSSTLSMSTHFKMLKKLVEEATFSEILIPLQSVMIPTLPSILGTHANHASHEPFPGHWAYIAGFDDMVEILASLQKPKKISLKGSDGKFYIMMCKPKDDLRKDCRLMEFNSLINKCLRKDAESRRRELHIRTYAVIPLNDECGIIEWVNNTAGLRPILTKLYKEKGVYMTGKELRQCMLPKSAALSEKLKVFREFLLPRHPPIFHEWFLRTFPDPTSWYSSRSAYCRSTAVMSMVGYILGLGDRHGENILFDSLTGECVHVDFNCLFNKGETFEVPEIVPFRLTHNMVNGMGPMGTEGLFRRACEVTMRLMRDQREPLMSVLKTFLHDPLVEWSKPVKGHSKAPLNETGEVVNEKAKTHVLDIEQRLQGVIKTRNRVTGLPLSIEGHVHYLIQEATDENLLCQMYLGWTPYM
ATR/ATRIP complex, sequence (Q8WXE1 whole entry partner): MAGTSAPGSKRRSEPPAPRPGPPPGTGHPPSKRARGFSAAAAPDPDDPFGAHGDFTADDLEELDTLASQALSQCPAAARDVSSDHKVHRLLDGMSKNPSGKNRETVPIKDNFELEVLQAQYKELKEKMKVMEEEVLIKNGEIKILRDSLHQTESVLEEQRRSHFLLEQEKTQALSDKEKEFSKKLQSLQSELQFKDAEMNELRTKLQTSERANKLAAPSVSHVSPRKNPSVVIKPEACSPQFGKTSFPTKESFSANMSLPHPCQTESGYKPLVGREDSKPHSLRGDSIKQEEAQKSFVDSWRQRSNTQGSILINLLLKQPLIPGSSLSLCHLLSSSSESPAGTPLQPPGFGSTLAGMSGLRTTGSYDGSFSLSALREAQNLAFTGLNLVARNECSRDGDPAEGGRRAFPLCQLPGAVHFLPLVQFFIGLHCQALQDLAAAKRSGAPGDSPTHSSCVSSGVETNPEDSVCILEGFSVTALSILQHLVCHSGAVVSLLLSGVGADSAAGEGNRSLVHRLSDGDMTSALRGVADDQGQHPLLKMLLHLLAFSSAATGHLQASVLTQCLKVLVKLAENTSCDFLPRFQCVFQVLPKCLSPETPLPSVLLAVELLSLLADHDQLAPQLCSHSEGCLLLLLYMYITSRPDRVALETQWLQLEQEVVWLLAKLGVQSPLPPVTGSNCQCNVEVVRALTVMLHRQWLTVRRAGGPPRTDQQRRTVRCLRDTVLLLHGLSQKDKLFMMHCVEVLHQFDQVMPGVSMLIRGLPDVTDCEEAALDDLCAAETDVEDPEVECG

SMILES	IC50 (ATR/ATRIP complex; [2]) [nM]	IC50 [1, 3] [nM]	IC50 (ATR/ATRIP complex; [4]) [nM]	IC50 ([1]; HT-29 cells) [nM]
C[C@@H]1Cc2ncnc(C3CCCN(S(C)(=O)=O)C3)c2CN1c1ccnc2[nH]ccc12 (single isomer, unassigned) [Example 50a]	1200	55		
C[C@@H]1Cc2ncnc(N3CCCC(S(C)(=O)=O)C3)c2CN1c1cc(Cl)nc2[nH]ccc12 (stereo partly drawn) [Example 65, (7R)-6-(6-chloro-1H-pyrrolo[2,3-b]pyridin-4-yl)-7-methyl-4-(3-(methylsulfonyl)-piperidin-1-yl)-5,6,7,8-tetrahydropyrido[4,3-d]-pyrimidine]	159	8		
CCC1(O)CCN(c2ncnc3c2CN(c2cc(Cl)nc4[nH]ccc24)[C@H](C)C3)CC1 [Example 46, (R)-1-(6-(6-Chloro-1H-pyrrolo[2,3-b]pyridin-4-yl)-7-methyl-5,6,7,8-tetrahydropyrido[4,3-d]pyrimidin-4-yl)-4-ethylpiperidin-4-ol]	282	21		
COC(=O)NC1[C@@H]2CC[C@H]1CN(c1ncnc3c1CN(c1cc(Cl)nc4[nH]ccc14)[C@H](C)C3)C2 (stereo partly drawn) [Example 28, methyl N-{3-[(7R)-6-{6-chloro-1H-pyrrolo[2,3-b]-pyridin-4-yl}-7-methyl-5H,6H,7H,8H-pyrido[4,3-d]pyrimidin-4-yl]-3-aza-bicyclo[3.2.1]octan-8-yl}carbamate]		46	1000 to 10000	
C[C@@H]1Cc2ncnc(N3CC4CCC(C3)C4NS(C)(=O)=O)c2CN1c1ccnc2[nH]ccc12 (stereo partly drawn) [Example 69, N-(3-((R)-7-methyl-6-(1H-pyrrolo[2,3-b]-pyridin-4-yl)-5,6,7,8-tetrahydropyrido[4,3-d]-pyrimidin-4-yl)-3-aza-bicyclo[3.2.1]octan-8-yl)-methanesulfonamide]	283	48		
C[C@@H]1Cc2ncnc([C@@H]3CCN(S(C)(=O)=O)C3)c2CN1c1ccnc2[nH]ccc12 [Example 57a, (R)-7-methyl-4-((R)-1-(methylsulfonyl)pyrrolidin-3-yl)-6-(1H-pyrrolo[2,3-b]pyridin-4-yl)-5,6,7,8-tetrahydropyrido[4,3-d]pyrimidine]	840	183		
COC(=O)[C@H]1CCCN(c2ncnc3c2CN(c2cc(Cl)nc4[nH]ccc24)[C@H](C)C3)C1 [Example 63, Methyl (S)-1-((R)-6-(6-chloro-1H-pyrrolo[2,3-b]pyridin-4-yl)-7-methyl-5,6,7,8-tetrahydropyrido-[4,3-d]pyrimidin-4-yl)-piperidine-3-carboxylate]	86	57		
C[C@@H]1Cc2ncnc(C3CCN(S(C)(=O)=O)CC3)c2CN1c1nccc2[nH]ccc12 [Example 59, (R)-7-methyl-4-(1-(methylsulfonyl)piperidin-4-yl)-6-(1H-pyrrolo[3,2-c]pyridin-4-yl)-5,6,7,8-tetrahydropyrido[4,3-d]pyrimidine]	2650	555		
C[C@@H]1Cc2ncnc(C3CCN(C(=O)C(C)(C)O)CC3)c2CN1c1ccnc2[nH]ccc12 [Example 49, (R)-2-Hydroxy-2-methyl-1-(4-(7-methyl-6-(1H-pyrrolo[2,3-b]pyridin-4-yl)-5,6,7,8-tetrahydropyrido[4,3-d]pyrimidin-4-yl)piperidin-1-yl)propan-1-one]	3600	654		
CCOc1cc(N2Cc3c(ncnc3C3CCN(S(C)(=O)=O)CC3)C[C@H]2CF)c2cc[nH]c2n1 [Example 55b, (S)-6-(6-ethoxy-1H-pyrrolo[2,3-b]pyridin-4-yl)-7-(fluoromethyl)-4-(1-(methylsulfonyl)piperidin-4-yl)-5,6,7,8-tetrahydropyrido[4,3-d]pyrimidine]	311	30		
C[C@@H]1Cc2ncnc(C3CCN(S(C)(=O)=O)C3)c2CN1c1ccnc2[nH]ccc12 (stereo partly drawn) [Example 17, 1-methanesulfonyl-3-[(7R)-7-methyl-6-{1H-pyrrolo[2,3-b]pyridin-4-yl}-5H,6H,7H,8H-pyrido[4,3-d]pyrimdin-4-yl]pyrrolidine]	936	362		
CS(=O)(=O)c1cccc(-c2ncnc3c2CN(c2ccnc4[nH]ccc24)CC3)c1 [Example 14, 4-(3-methanesulfonyl-phenyl)-6-{1H-pyrrolo-[2,3-b]pyridin-4-yl}-5H,6H,7H,8H-pyrido [4,3-d]pyrimidine]		1610	1000 to 10000	
COC(=O)N1CCCC(c2ncnc3c2CN(c2cc(Cl)nc4[nH]ccc24)[C@H](C)C3)C1 (stereo partly drawn) [Example 10, Methyl 3-((R)-6-(6-chloro-1H-pyrrolo[2,3-b]pyridin-4-yl)-7-methyl-5,6,7,8-tetrahydro-pyrido[4,3-d]pyrimidin-4-yl)piperidine-1-carboxylate bis(trifluoroacetate)]	408	39		
C[C@@H]1Cc2ncnc(N3CCC[C@@H](NS(C)(=O)=O)C3)c2CN1c1cc(Cl)nc2[nH]ccc12 [Example 72, N-((R)-1-((R)-6-(6-chloro-1H-pyrrolo[2,3-b]-pyridin-4-yl)-7-methyl-5,6,7,8-tetrahydropyrido-[4,3-d]pyrimidin-4-yl)-piperidin-3-yl)-methanesulfonamide]	715	119		
C[C@@H]1Cc2ncnc(C3C[C@H]4CC[C@@H](C3)N4S(C)(=O)=O)c2CN1c1cc(Cl)nc2[nH]ccc12 (single isomer, unassigned) [Example 11b]	329			29
C[C@@H]1Cc2ncnc(N3CC(NS(C)(=O)=O)C3)c2CN1c1ccnc2[nH]ccc12 [Example 84, (R)-N-(1-(7-methyl-6-(1H-pyrrolo[2,3-b]-pyridin-4-yl)-5,6,7,8-tetrahydropyrido[4,3-d]pyrimidin-4-yl)-azetidin-3-yl)-methanesulfonamide]	722	79		
C[C@@H]1Cc2ncnc(N3CCC[C@H](NS(C)(=O)=O)C3)c2CN1c1cc(Cl)nc2[nH]ccc12 [Example 71, N-((S)-1-((R)-6-(6-chloro-1H-pyrrolo[2,3-b]-pyridin-4-yl)-7-methyl-5,6,7,8-tetrahydropyrido-[4,3-d]pyrimidin-4-yl)-piperidin-3-yl)-methanesulfonamide]	73	7		
C[C@@H]1Cc2ncnc(N3CCC(S(C)(=O)=O)C3)c2CN1c1cc(Cl)nc2[nH]ccc12 (stereo partly drawn) [Example 41, (7R)-6-(6-chloro-1H-pyrrolo[2,3-b]pyridin-4-yl)-7-methyl-4-(3-(methylsulfonyl)pyrrolidin-1-yl)-5,6,7,8-tetrahydropyrido[4,3-d]pyrimidine]	472	36		
C[C@@H]1Cc2ncnc(N3CCC34CN(S(C)(=O)=O)C4)c2CN1c1cc(Cl)nc2[nH]ccc12 [Example 37, (R)-6-(6-chloro-1H-pyrrolo[2,3-b]pyridin-4-yl)-7-methyl-4-(6-(methylsulfonyl)-1,6-diazaspiro[3.3]heptan-1-yl)-5,6,7,8-tetrahydropyrido[4,3-d] pyrimidine]		56	1000 to 10000	
C[C@@H]1Cc2ncnc(N3C[C@H]4CC[C@@H](C3)C4NC(=O)CC(F)(F)F)c2CN1c1cc(Cl)nc2[nH]ccc12 (stereo partly drawn) [Example 26, N-{3-[(7R)-6-{6-chloro-1H-pyrrolo[2,3-b]pyridin-4-yl}-7-methyl-5H,6H,7H,8H-pyrido[4,3-d]pyrimidin-4-yl]-3-aza-bicyclo[3.2.1]octan-8-yl}-3,3-trifluoro-propanamide]		88	1000 to 10000	
CS(=O)(=O)c1ccc(-c2ncnc3c2CN(c2ccnc4[nH]ccc24)CC3)cc1 [Example 1, 4-(4-(Methylsulfonyl)phenyl)-6-(1H-pyrrolo[2,3-b]pyridin-4-yl)-5,6,7,8-tetrahydropyrido[4,3-d]pyrimidine bis(trifluoroacetate)]		1880	1000 to 10000	
CC1Cc2ncnc(-c3cccc(S(C)(=O)=O)c3)c2CN1c1ccnc2[nH]ccc12 (stereo not shown) [Example 15, 4-(3-methanesulfonyl-phenyl)-7-methyl-6-{1H-pyrrolo[2,3-b]pyridin-4-yl}-5H,6H,7H,8H-pyrido[4,3-d]pyrimidine]		152	1000 to 10000	
C[C@@H]1Cc2ncnc(N3CCCC(S(C)(=O)=O)C3)c2CN1c1ccnc2[nH]ccc12 (stereo partly drawn) [Example 18, 3-methanesulfonyl-1-[(7R)-7-methyl-6-{1H-pyrrolo[2,3-b]pyridin-4-yl}-5H,6H,7H,8H-pyrido[4,3-d]pyrimidin-4-yl]piperidine]	420	133		
C[C@@H]1Cc2ncnc(C3CN(S(C)(=O)=O)C3)c2CN1c1cc(Cl)nc2[nH]ccc12 [Example 47, (R)-6-(6-Chloro-1H-pyrrolo[2,3-b]pyridin-4-yl)-7-methyl-4-(1-(methylsulfonyl)azetidin-3-yl)-5,6,7,8-tetrahydropyrido[4,3-d]pyrimidine]	287	30		
C[C@@H]1Cc2ncnc(C3CCN(S(C)(=O)=O)CC3)c2CN1c1cc(Cl)nc2[nH]ccc12 [Example 7, (R)-6-(6-Chloro-1H-pyrrolo[2,3-b]pyridin-4-yl)-7-methyl-4-(1-(methylsulfonyl)-piperidin-4-yl)-5,6,7,8-tetrahydropyrido[4,3-d]pyrimidine bis(trifluoroacetate)]	163	32		
COC(=O)[C@@H]1CCCN(c2ncnc3c2CN(c2cc(Cl)nc4[nH]ccc24)[C@H](C)C3)C1 [Example 62, Methyl (R)-1-((R)-6-(6-chloro-1H-pyrrolo[2,3-b]pyridin-4-yl)-7-methyl-5,6,7,8-tetrahydropyrido-[4,3-d]pyrimidin-4-yl)-piperidine-3-carboxylate]	253	138		
